Test results as given in patent publication US20080171159A1, “METHOD FOR STORING A DRUG-LOADED SUPPORT” (priority 2007, published 2008).

Test: Vapor pressure at 25° C. by the Donovan method (gas chromatography)
Type: physicochemical
Method: The pyrethroid compound volatile at ambient temperature used in the present invention (hereinafter referred to as “the present active ingredient”) is a pyrethroid compound with a vapor pressure of about 6×10^−6 to about 1×10^−4 mm Hg at 25° C. when measured, for instance, by the method reported by Stephen F. Donovan (New method for estimating vapor pressure by use of gas chromatography, Journal of Chromatography A. 749(1996) 123-129, hereinafter referred to as “Donovan method”) and an ester compound represented by formula (I)
Specific examples of the present active ingredient are 2,3,5,6-tetrafluoro-4-methylbenzyl 3-(1-propenyl)-2,2-dimethylcyclopropanecarboxylate (7.7×10^−5 mm Hg), 2,3,5,6-tetrafluoro-4-methylbenzyl 3-(2-methyl-1-propenyl)-2,2-dimethylcyclopropanecarboxylate(3.1×10^−5 mm Hg), 2,3,5,6-tetrafluorobenzyl 3-(2,2-dichlorovinyl)-2,2-dimethylcyclopropanecarboxylate (2.6×10^−5 mm Hg), 2,3,5,6-tetrafluoro-4-methoxymethylbenzyl 3-(1-propenyl)-2,2-dimethylcyclopropanecarboxylate(1.4×10^-5 mm Hg), and 2,3,5,6-tetrafluoro-4-methoxymethylbenzyl 3-(2-methyl-1-propenyl)-2,2-dimethylcyclopropanecarboxylate(6.8×10^−6 mm Hg).

SMILES	vapor pressure
CC=CC1C(C(=O)OCc2c(F)c(F)c(COC)c(F)c2F)C1(C)C (centres unmarked) [2,3,5,6-tetrafluoro-4-methoxymethylbenzyl 3-(1-propenyl)-2,2-dimethylcyclopropanecarboxylate]	1.4×10^-5 mm Hg
COCc1c(F)c(F)c(COC(=O)C2C(C=C(C)C)C2(C)C)c(F)c1F (centres unmarked) [2,3,5,6-tetrafluoro-4-methoxymethylbenzyl 3-(2-methyl-1-propenyl)-2,2-dimethylcyclopropanecarboxylate]	6.8×10^−6 mm Hg
CC=CC1C(C(=O)OCc2c(F)c(F)c(C)c(F)c2F)C1(C)C (centres unmarked) [2,3,5,6-tetrafluoro-4-methylbenzyl 3-(1-propenyl)-2,2-dimethylcyclopropanecarboxylate]	7.7×10^−5 mm Hg
CC(C)=CC1C(C(=O)OCc2c(F)c(F)c(C)c(F)c2F)C1(C)C (centres unmarked) [2,3,5,6-tetrafluoro-4-methylbenzyl 3-(2-methyl-1-propenyl)-2,2-dimethylcyclopropanecarboxylate]	3.1×10^−5 mm Hg
CC1(C)C(C=C(Cl)Cl)C1C(=O)OCc1c(F)c(F)cc(F)c1F (centres unmarked) [2,3,5,6-tetrafluorobenzyl 3-(2,2-dichlorovinyl)-2,2-dimethylcyclopropanecarboxylate]	2.6×10^−5 mm Hg
